Reference: US4994376A, “Detection of bacteroides gingivalis” (priority 1987, dated 1991)
Read-outs that look alike come from different tables or passages of the source. Peptide text beside a SMILES is read from it. * marks the point of attachment. βNA = c1ccc2cc(N*)ccc2c1

What was measured:
Type in all cases: biochemical
[1] = tested on: B. asaccharolyticus; conditions: β-naphthylamine liberated after 60 minutes, 37° C.
How it was run: (§1)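 Hydrolysis of N-CBz-glycyl-glycyl-L-arginine-β-naphthylamide over 1 h at 37 °C, then colour developed with Fast Garnet GBC (0.5 mg/ml) in 1M acetate pH 4.2 with 10% Tween 20 for 15 min at room temperature. Absorbance read at 525 nm against an enzyme-free control; activity given as nmol β-naphthylamine released in 60 min.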

[2] = tested on: B. levii; conditions: β-naphthylamine liberated after 60 minutes, 37° C.
How it was run: as §1

[3] = tested on: B. loescheii; conditions: β-naphthylamine liberated after 60 minutes, 37° C.
How it was run: as §1

[4] = tested on: B. mel. ss. intermedius; conditions: β-naphthylamine liberated after 60 minutes, 37° C.
How it was run: as §1

[5] = tested on: Bacteroides gingivalis; conditions: β-naphthylamine liberated after 60 minutes, 37° C.
How it was run: as §1

[6] = tested on: C. ochracea; conditions: strain ATCC 27872; β-naphthylamine liberated after 60 minutes, 37° C.
How it was run: as §1

[7] = tested on: Capnocytophaga gingivalis; conditions: strain ATCC 33624; β-naphthylamine liberated after 60 minutes, 37° C.
How it was run: as §1

[8] = tested on: Capnocytophaga sp.; conditions: strain JD3-5; β-naphthylamine liberated after 60 minutes, 37° C.
How it was run: as §1

[9] = tested on: "Anaerobic vibrio"; conditions: strain SN2T2; β-naphthylamine liberated after 60 minutes, 37° C.
How it was run: (§2)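 Enzyme plus N-CBz-glycyl-glycyl-L-arginine-β-naphthylamide incubated 1 h at 37° C. Fast Garnet GBC (0.5 mg/ml) in 1M acetate pH 4.2 with 10% Tween 20 added; stood 15 min at RT. A525 read; activity given as nmol β-naphthylamine liberated in 60 min.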

[10] = tested on: A. seminis; conditions: strain ATCC 15768; β-naphthylamine liberated after 60 minutes, 37° C.
How it was run: as §2

[11] = tested on: A. viscosus; conditions: β-naphthylamine liberated after 60 minutes, 37° C.
How it was run: as §2

[12] = tested on: Actinobacillus actinomycetemcomitans; conditions: β-naphthylamine liberated after 60 minutes, 37° C.
How it was run: as §2

[13] = tested on: Actinomyces israeli; conditions: β-naphthylamine liberated after 60 minutes, 37° C.
How it was run: as §2

[14] = tested on: Campylobacter sputorum; conditions: strain Ba1-21; β-naphthylamine liberated after 60 minutes, 37° C.
How it was run: as §2

[15] = tested on: Fusobacterium nucleatum; conditions: β-naphthylamine liberated after 60 minutes, 37° C.
How it was run: as §2

[16] = tested on: S. mutans; conditions: strain ATCC 25175; β-naphthylamine liberated after 60 minutes, 37° C.
How it was run: as §2

[17] = tested on: S. sanguis; conditions: β-naphthylamine liberated after 60 minutes, 37° C.
How it was run: as §2

[18] = tested on: Streptococcus mitis; conditions: β-naphthylamine liberated after 60 minutes, 37° C.
How it was run: as §2

[19] = tested on: V. parvula; conditions: strain ATCC 10790; β-naphthylamine liberated after 60 minutes, 37° C.
How it was run: as §2

[20] = tested on: Veillonella sp.; conditions: strain SE1M2; β-naphthylamine liberated after 60 minutes, 37° C.
How it was run: as §2

[21] = tested on: A. equuli; test: Aminopeptidase activity on β-naphthylamide substrates; conditions: strain ATCC 19392; β-naphthylamine liberated after 60 minutes, 37° C.
How it was run: as §2

[22] = tested on: A. suis; test: as above; conditions: strain ATCC 15557; β-naphthylamine liberated after 60 minutes, 37° C.
How it was run: as §2

[23] = tested on: F. periodonticum; test: as above; conditions: strain EK1-15; β-naphthylamine liberated after 60 minutes, 37° C.
How it was run: as §2

[24] = tested on: Haemophilus aphrophilus; test: as above; conditions: β-naphthylamine liberated after 60 minutes, 37° C.
How it was run: as §2

[25] = tested on: L. fermentum; test: as above; conditions: strain ATCC 11581; β-naphthylamine liberated after 60 minutes, 37° C.
How it was run: as §2

[26] = tested on: Lactobacillus casei; test: as above; conditions: β-naphthylamine liberated after 60 minutes, 37° C.
How it was run: as §2

[27] = tested on: S. salivarius; test: as above; conditions: β-naphthylamine liberated after 60 minutes, 37° C.
How it was run: as §2

Measured: Aminopeptidase activity

CC(C)C[C@H](NC(=O)[C@@H]1CCCN1C(=O)CN)C(=O)Nc1ccc2ccccc2c1 [Gly-Pro-Leu] (H-Gly-Pro-Leu-βNA)
27 nmol: [18]; strain ATCC 9815
0 nmol: [1]; strain ATCC 18569 | [1]; strain NY446 | [2]; strain 18-1-8 | [5]; strain 9-14K-1 | [5]; strain 381 | [5]; strain 1021 | [5]; strain ATCC 33277 | [5]; strain FAYE 19m-1 | [8] | [9] | [10] | [11]; strain ATCC 19246 | [12]; strain ATCC 29523 | [12]; strain NCTC 9709 | [12]; strain Y4 | [13]; strain ATCC 12103 | [13]; strain DK2-3 | [15]; strain 2 | [16] | [19] | [20] | [21] | [22] | [24]; strain ATCC 13252 | [24]; strain ATCC 19415 | [24]; strain NCTC 5908 | [25] | [26]; strain ATCC 7469 | [26]; strain ATCC 11578 | [26]; strain ATCC 11582 | [27]; strain ATCC 25975
4 nmol: [1]; strain ATCC 27067
58 nmol: [7]
3 nmol: [1]; strain 536B | [1]; strain ATCC 25260
41 nmol: [6]
2 nmol: [4]; strain ATCC 33563 | [5]; strain 11-1-2 | [11]; strain T14V | [14] | [15]; strain ATCC 25586 | [15]; strain D31A-24 | [27]; strain ATCC 9759
7 nmol: [18]; strain ATCC 15909
6 nmol: [17]; strain ATCC 10557
11 nmol: [17]; strain ATCC 10556 | [18]; strain ATCC 15912
1 nmol: [2]; strain 18-1-5 | [3]; strain ATCC 15930 | [3]; strain VPI4196 | [4]; strain ATCC 25261 | [4]; strain NCTC 9336 | [12]; strain 67 | [12]; strain 75 | [23]
